Test results taken from ChEMBL document CHEMBL5375960, “Design and Synthesis of Novel Cereblon Binders for Use in Targeted Protein Degradation” (J Med Chem, 2023).
pEC50, pIC50: −log10 of the molar value. The source made the active and inactive calls. The calls are words filed in the database; no cut-off is given here.

Assays:
[1] = target: Protein cereblon/DNA damage-binding protein 1 (Homo sapiens, UniProt Q96SW2); assay: Displacement of Cy5-labeled tracer CC0782985 from 6His-tagged CRBN (1 to 442 residues)/DDB1 (1 to 1140 residues) (unknown origin) incubated for 20 mins by TR-FRET assay; format: protein assay
[2] = target: Zinc finger protein Aiolos (Homo sapiens, UniProt Q9UKT9); assay: Induction of ePL tagged Aiolos degradation in human DF15 cells incubated for 4 hrs by luminescence based assay; format: cell-based
[3] = target: T1, Androgen receptor (Homo sapiens) (UniProt P10275); assay: Induction of androgen receptor degradation in human VCaP cells incubated for 24 hrs by ELISA; format: cell-based
T1 sequence (whole entry): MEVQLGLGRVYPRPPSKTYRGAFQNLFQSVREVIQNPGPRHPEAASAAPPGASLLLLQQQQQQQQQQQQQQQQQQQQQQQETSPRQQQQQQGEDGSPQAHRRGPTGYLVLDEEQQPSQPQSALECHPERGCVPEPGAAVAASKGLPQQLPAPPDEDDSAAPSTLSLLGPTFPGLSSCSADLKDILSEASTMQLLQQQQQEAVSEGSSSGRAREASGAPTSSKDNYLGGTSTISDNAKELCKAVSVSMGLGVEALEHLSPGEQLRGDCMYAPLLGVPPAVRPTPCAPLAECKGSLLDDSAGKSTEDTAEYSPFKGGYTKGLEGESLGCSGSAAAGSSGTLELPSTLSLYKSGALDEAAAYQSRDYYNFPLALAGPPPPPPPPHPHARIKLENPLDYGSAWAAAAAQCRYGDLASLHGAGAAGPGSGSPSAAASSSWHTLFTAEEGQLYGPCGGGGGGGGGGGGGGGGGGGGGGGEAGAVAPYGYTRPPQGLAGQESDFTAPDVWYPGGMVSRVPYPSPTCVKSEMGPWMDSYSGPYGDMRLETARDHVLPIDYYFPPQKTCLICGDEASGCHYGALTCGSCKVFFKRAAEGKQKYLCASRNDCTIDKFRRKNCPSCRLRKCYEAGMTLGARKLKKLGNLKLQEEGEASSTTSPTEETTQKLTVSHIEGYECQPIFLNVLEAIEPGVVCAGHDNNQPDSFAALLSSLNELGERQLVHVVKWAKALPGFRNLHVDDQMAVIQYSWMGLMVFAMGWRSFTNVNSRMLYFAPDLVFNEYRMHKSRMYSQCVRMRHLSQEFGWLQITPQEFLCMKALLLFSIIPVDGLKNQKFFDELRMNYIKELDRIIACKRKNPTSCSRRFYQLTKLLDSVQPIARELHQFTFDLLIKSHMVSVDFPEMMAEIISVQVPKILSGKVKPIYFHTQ

[4] = target: T2, Eukaryotic peptide chain release factor GTP-binding subunit ERF3A (Homo sapiens, UniProt P15170); assay: Induction of ePL tagged GSPT1 degradation in human DF15 cells incubated for 20 hrs by luminescence based assay; format: cell-based
[5] = target: T2, Eukaryotic peptide chain release factor GTP-binding subunit ERF3A; assay: Induction of ePL tagged GSPT1 degradation in human DF15 cells assessed as remaining activity incubated for 20 hrs by luminescence based assay relative to control; format: cell-based; parameters: concentration or dose not given beside the values
[6] = target: T2, Eukaryotic peptide chain release factor GTP-binding subunit ERF3A; assay: Induction of ePL tagged GSPT1 degradation in human DF15 cells incubated for 20 hrs by luminescence based assay relative to control; format: cell-based

SMILES | pIC50 [1] | pEC50 [2] | Activity [3] | pEC50 [4] | Activity [5] [%] | Activity [6] [%]
Nc1cccc2c1ncn2C1CCC(=O)NC1=O (stereo unspecified) | 6.09 | < 5.00 | – | – | – | –
Nc1cccc2c1C(=O)N(C1CCC(=O)NC1=O)C2=O (stereo unspecified) [POMALIDOMIDE] | – | 7.70 | – | – | – | –
Nc1cccc(N2CCC(=O)NC2=O)c1 | 4.93 | < 5.00 | inactive | – | – | –
Cn1nc(N2CCC(=O)NC2=O)c2ccccc21 | 5.17 | < 5.00 | – | – | – | –
Nc1ccc(NC2CCC(=O)NC2=O)cc1 (stereo unspecified) | 4.91 | < 5.00 | – | – | – | –
O=C1CCC(Nc2ccccc2)C(=O)N1 (stereo unspecified) | 5.25 | < 5.00 | – | – | – | –
Cn1nc(C2CCC(=O)NC2=O)c2cccc(N)c21 (stereo unspecified) | 6.72 | < 5.00 | – | – | – | –
Nc1ccc2c(c1)ncn2C1CCC(=O)NC1=O (stereo unspecified) | 6.23 | 6.51 | – | – | – | –
Cc1ccc(NC(=O)NCc2ccc(N3CCC(=O)NC3=O)cc2)cc1Cl | 5.33 | < 5.00 | – | < 5.00 | 93.8 | –
O=C1CCC(c2ccc(OCc3ccc(CN4CCOCC4)cc3)cc2)C(=O)N1 (stereo unspecified) | 5.72 | < 5.00 | – | < 5.00 | 97.1 | –
Cn1nc(N2CCC(=O)NC2=O)c2ccc(N)cc21 | 5.64 | < 5.00 | – | – | – | –
Nc1ccc(C2CCC(=O)NC2=O)cc1 (stereo unspecified) | 5.92 | < 5.00 | Active | – | – | –
Nc1cccc(N[C@H]2CCC(=O)NC2=O)c1 | 5.85 | < 5.00 | – | – | – | –
Nc1cccc(N[C@@H]2CCC(=O)NC2=O)c1 | 5.54 | < 5.00 | – | – | – | –
O=C1CCN(c2ccc(OCc3ccc(CN4CCOCC4)cc3)cc2)C(=O)N1 | 5.10 | < 5.00 | – | < 5.00 | 97.1 | –
Cc1ccc(NC(=O)NCc2cccc(N3CCC(=O)NC3=O)c2)cc1Cl | 5.07 | < 5.00 | – | < 5.00 | 95.2 | –
Cc1ccc(NC(=O)NCc2ccc(C3CCC(=O)NC3=O)cc2)cc1Cl (stereo unspecified) | 6.54 | < 5.00 | – | 7.15 | 73.4 | 26
Nc1ccc2ncn(C3CCC(=O)NC3=O)c2c1 (stereo unspecified) | 6.13 | 6.85 | – | – | – | –
O=C1CCC(c2ccccc2)C(=O)N1 (stereo unspecified) | – | < 5.00 | – | – | – | –
Nc1ccc(N2CCC(=O)NC2=O)cc1 | 4.63 | < 5.00 | inactive | – | – | –
O=C1CCC(n2ncc3ccccc32)C(=O)N1 (stereo unspecified) | – | < 5.00 | – | – | – | –
Nc1ccc(C(=O)NC2CCC(=O)NC2=O)cc1 (stereo unspecified) | 5.26 | 6.22 | – | – | – | –

SMILES | pIC50 [1] | pEC50 [2] | Activity [3] | pEC50 [4] | Activity [5] [%] | Activity [6] [%]
Cc1ccc(NC(=O)NCc2ccc(C(=O)NC3CCC(=O)NC3=O)cc2)cc1Cl (stereo unspecified) | 5.47 | < 5.00 | – | 7.00 | 33.7 | –
Nc1cccc(NC2CCC(=O)NC2=O)c1 (stereo unspecified) | 5.43 | < 5.00 | – | – | – | –
Cc1ccc(NC(=O)NCc2cccc(C(=O)NC3CCC(=O)NC3=O)c2)cc1Cl (stereo unspecified) | 5.42 | < 5.00 | – | 7.68 | 3.1 | –
Cn1nc(C2CCC(=O)NC2=O)c2ccc(N)cc21 (stereo unspecified) | 7.00 | < 5.00 | – | – | – | –
O=c1ccn(-c2ccccc2)c(=O)[nH]1 | < 4.00 | < 5.00 | – | – | – | –
O=C1CCC(n2cnc3ccc(OCc4ccc(CN5CCOCC5)cc4)cc32)C(=O)N1 (stereo unspecified) | 6.55 | 7.15 | – | < 5.00 | 99 | –
O=C1CCC(Oc2ccccc2)C(=O)N1 (stereo unspecified) | 5.15 | < 5.00 | – | – | – | –
O=C1CCN(c2cccc(OCc3ccc(CN4CCOCC4)cc3)c2)C(=O)N1 | 5.48 | < 5.00 | – | < 5.00 | 94 | –
Cn1nc(C2CCC(=O)NC2=O)c2ccccc21 (stereo unspecified) | 6.82 | < 5.00 | – | – | – | –
Cc1ccc(NC(=O)NCc2cccc(C3CCC(=O)NC3=O)c2)cc1Cl (stereo unspecified) | 5.82 | < 5.00 | – | < 5.00 | 92.8 | –
COc1ccc(C2CCC(=O)NC2=O)cc1 (stereo unspecified) | 5.66 | < 5.00 | – | – | – | –
COc1cccc(C2CCC(=O)NC2=O)c1 (stereo unspecified) | 5.77 | < 5.00 | – | – | – | –
Cc1ccc(NC(=O)NCc2ccccc2C(=O)NC2CCC(=O)NC2=O)cc1Cl (stereo unspecified) | 4.99 | < 5.00 | – | < 5.00 | 88.4 | –
O=C1CCC(NC(=O)c2ccccc2)C(=O)N1 (stereo unspecified) | 4.95 | < 5.00 | – | – | – | –
Cn1nc(N2CCC(=O)NC2=O)c2cccc(N)c21 | 4.91 | < 5.00 | – | – | – | –
Nc1cccc2c1cnn2C1CCC(=O)NC1=O (stereo unspecified) | 6.47 | < 5.00 | – | – | – | –
Nc1cccc(C(=O)NC2CCC(=O)NC2=O)c1 (stereo unspecified) | 4.59 | < 5.00 | – | – | – | –
Cc1ccc(NC(=O)NCc2ccc3c(c2)CN(C2CCC(=O)NC2=O)C3=O)cc1Cl (stereo unspecified) | 7.52 | 8.30 | – | 9.52 | 3.9 | –
O=C1CCN(c2ccccc2)C(=O)N1 | – | < 5.00 | – | – | – | –
O=C1CC[C@H](N2Cc3c(OCc4ccc(CN5CCOCC5)cc4)cccc3C2=O)C(=O)N1 [IBERDOMIDE] | – | 9.00 | – | < 5.00 | 88.8 | –
O=C1CCC(c2cccc(OCc3ccc(CN4CCOCC4)cc3)c2)C(=O)N1 (stereo unspecified) | 6.24 | < 5.00 | – | < 5.00 | 96.6 | –
Nc1cccc(C2CCC(=O)NC2=O)c1 (stereo unspecified) | 5.64 | < 5.00 | Active | – | – | –
